The target of test [1] is chymotrypsin (Bos taurus, UniProt P00766). The conditions noted are these: Matteson et al. J. Am. Chem. Soc. 103: 5241 (1981); cited from earlier work.
For test [2], the system named is thrombin clotting times. The test is described as follows: Thrombin clotting time, concentration for 2-fold increase. In kind it is biochemical. The following applies: 2-fold increase of thrombin clotting time.
Test [3] addresses T1, human thrombin (Homo sapiens, UniProt P00734).
T1 construct: 0.2-0.5 nM human thrombin or human factor Xa; purchased Enzyme Research Laboratories, South Bend, Ind
The test is described as follows: Inhibition of thrombin hydrolysis of chromogenic substrate S2238 (Ki). In kind it is biochemical. The conditions noted are these: S2238, pH 7.5. The method in brief: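 Purified human enzymes hydrolysing pNA substrates (thrombin S2238, factor Xa S2222, factor VIIa S2288), followed by absorbance at 405 nm over 30 min with velocities taken at 25-30 min. Thrombin and Xa were run in 0.10 M phosphate pH 7.5, 0.20 M NaCl, 0.5% PEG 8000. VIIa was run in 0.05 M Tris pH 7.6, 0.10 M NaCl, 4 mM CaCl2, 0.1% BSA, with Ki calculated from inhibited versus control velocities using substrate concentration and Km.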

In test [4] the target is T2, human factor Xa (Homo sapiens, UniProt P00742).
T2 construct: 0.2-0.5 nM human thrombin or human factor Xa; purchased Enzyme Research Laboratories, South Bend, Ind
T2 sequence (P00742 235-488 limits assumed): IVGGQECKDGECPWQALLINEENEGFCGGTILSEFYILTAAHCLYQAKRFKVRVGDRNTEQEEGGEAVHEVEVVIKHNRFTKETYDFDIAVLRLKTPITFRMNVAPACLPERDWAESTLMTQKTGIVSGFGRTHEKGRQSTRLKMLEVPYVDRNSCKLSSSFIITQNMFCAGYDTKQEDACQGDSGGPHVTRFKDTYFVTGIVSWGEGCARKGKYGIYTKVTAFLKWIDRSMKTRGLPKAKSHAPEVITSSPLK
T2 sequence (P00742 41-179 limits assumed): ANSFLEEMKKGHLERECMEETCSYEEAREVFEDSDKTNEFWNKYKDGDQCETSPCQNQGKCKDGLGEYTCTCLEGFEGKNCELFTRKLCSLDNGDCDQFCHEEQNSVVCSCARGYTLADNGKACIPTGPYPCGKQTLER
The test is described as follows: Inhibition of Factor Xa hydrolysis of chromogenic substrate S2222 (Ki). In kind it is biochemical. The conditions noted are these: S2222, pH 7.5. As for the experimental part: (§1) The effectiveness of compounds of the present invention as inhibitors of blood coagulation proteases was determined using purified human proteases and synthetic substrates following procedures similar to those described in Kettner et al. (1990).
(§2) For these assays, the rate of enzymatic (thrombin, Factor Xa, and Factor VIIa) hydrolysis of chromogenic substrates (S2238 (H-D-Phe-Pip-Arg-pNA), S2222, and S2288, respectively; Kabi Pharmacia, Franklin, Ohio) was measured both in the absence and presence of compounds of the present invention. […] A decrease in the rate of absorbance change at 405 nm in the presence of inhibitor is indicative of enzyme inhibition. The results of this assay are expressed as inhibitory constant, Ki.
(§3) Thrombin and Xa determinations were made in 0.10M sodium phosphate buffer, pH 7.5, containing 0.20M NaCl, and 0.5% PEG 8000. VIIa determinations were made in 0.05M tris buffer, pH 7.6, containing 0.10M NaCl, 4 mM CaCl2, and 0.1% bovine serum albumin.
(§4) Reactions were allowed to go for 30 minutes and the velocities (rate of absorbance change vs time) were measured in the time frame of 25-30 minutes. The following relationship was used to calculate Ki values. [formula] where: vo is the velocity of the control in the absence of inhibitor;
(§5) vs is the velocity in the presence of inhibitor;
(§6) I is the concentration of inhibitor;
(§7) Ki is the dissociation constant of the enzyme: inhibitor complex;
(§8) S is the concentration of substrate;
(§9) Km is the Michaelis constant.

In test [5] the target is T3, human factor VIIa (Homo sapiens, UniProt P08709).
T3 construct: 50 nM human factor VIIa (BiosPacific, Emeryville, Calif.); purchased BiosPacific, Emeryville, Calif
T3 sequence (P08709 213-466 limits assumed): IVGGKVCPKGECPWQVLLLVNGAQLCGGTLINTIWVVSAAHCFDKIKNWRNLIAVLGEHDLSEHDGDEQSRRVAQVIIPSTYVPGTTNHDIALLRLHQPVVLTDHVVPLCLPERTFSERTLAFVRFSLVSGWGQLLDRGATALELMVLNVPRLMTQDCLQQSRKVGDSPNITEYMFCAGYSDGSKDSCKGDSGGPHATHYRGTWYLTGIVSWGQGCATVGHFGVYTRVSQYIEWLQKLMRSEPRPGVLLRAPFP
T3 sequence (P08709 61-212 limits assumed): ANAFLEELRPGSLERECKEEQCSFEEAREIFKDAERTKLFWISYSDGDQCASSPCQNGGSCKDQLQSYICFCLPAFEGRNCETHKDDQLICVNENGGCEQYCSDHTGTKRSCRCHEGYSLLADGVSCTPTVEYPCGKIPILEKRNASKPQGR
The test is described as follows: Inhibition of Factor VIIa hydrolysis of chromogenic substrate S2288 (Ki). In kind it is biochemical. The following applies: S2288, pH 7.6. The protocol:
as §1, §2, §3, §4, §5, §6, §7, §8, §9

In test [6] the test system is activated partial thromboplastin time. The test is described as follows: Anticoagulant effect in vivo: prolongation of activated partial thromboplastin time of blood samples after dosing. The conditions noted are these: 0.5 to 10 mg/kg, dogs or rats. More on the design: species or system conscious dogs or anesthetized rats. As for the experimental part: Arterial or venous blood was withdrawn by syringe and mixed with 1/10 volume 3.2% sodium citrate. Plasma was obtained after centrifugation and a standard clinical activated partial thromboplastin time (APTT reagent, Sigma Chemical Co., St. Louis, Mo.) determined at 37° C. in a fibrometer.

Test [7] deals with thrombin clotting times. The test is described as follows: Anticoagulant effect in vivo: identical model, activity measured by increases in thrombin clotting times. On the set-up: species or system conscious dogs or anesthetized rats. The conditions noted are these: oral administration.

Some results are limits rather than exact numbers.

Usually Ki stands for the dissociation constant of the complex between target and ligand, obtained from inhibition or displacement. In the case of `CC(=O)N[C@@H](Cc1ccccc1)B(O)O` [Ac-boroPhe--OH, R-1-acetamido-2-phenylethane boronic acid], in test [1], the inhibition constant (Ki) is 4 µM.

`CC(=O)NC(Cc1ccccc1)C(=O)N1CCCC1C(=O)NC(CCCNC=N)B1OC2CC3CC(C3(C)C)C2(C)O1.Cl` (centres unmarked) [Example 3, Ac--(D)Phe--Pro--boroOrn(CH=NH)]--C10 H16.HCl]: the “concentration that increased thrombin clotting times 2-fold” value in test [2] came out at 0.25 µM. In addition, the Ki in test [3] is < 0.5 µM.

Take `CC(=O)NC(Cc1ccccc1)C(=O)N1CCCC1C(=O)NC(Cc1cccc(C#N)c1)B1OC2CC3CC(C3(C)C)C2(C)O1` (centres unmarked) [Example 11, Ac--(D)Phe--Pro--boroPhe--(m-CN)--C10 H16]: the Ki in test [4] was < 50 µM; in test [3], < 0.5 µM; in test [5], < 0.5 µM. Further, the “concentration that increased thrombin clotting times 2-fold” value in test [2] is 0.60 µM.

Consider `CC(=O)NC(Cc1ccccc1)C(=O)N1CCCC1C(=O)NC(Cc1cccc(C(=N)N)c1)B1OC2CC3CC(C3(C)C)C2(C)O1.O=S(=O)(O)c1ccccc1` (centres unmarked) [Example 12, Ac--(D)Phe--Pro--boroPhe--(m-C(NH)NH2)--C10 H16.BSA], for which the “concentration that increased thrombin clotting times 2-fold” value in test [2] stood at 0.85 µM. In addition, the Ki in test [3] was < 0.5 µM.

On to `CCCCS(=O)(=O)NC(Cc1ccccc1)C(=O)N1CCCC1C(=O)NC(CCCNC=N)B(O)O.Cl` (centres unmarked) [Example 66, CH3 (CH2)3 SO2 --(D)Phe--Pro--boroOrn(CH=NH)--OH.HCl], for which the “anticoagulant response (at least doubling of activated partial thromboplastin time vs. pre-dose)” value in test [6] (oral dosing) is recorded as “effective”. The Ki in test [3] is < 0.5 µM.

Consider “Ac--(D)Phe--Pro--boroArg(CH3)--OH.HCl [Example 54]”, for which, in test [7], the “elevation in anticoagulant activity measured by increases in thrombin clotting times” value is recorded as ≥ 2 fold. Also, in test [3], the Ki is < 0.5 µM.

For the molecule “Ac--(D)Phe--Pro--boroOrn(CH=NH)]--OH.HCl [Example 4]”, the “anticoagulant response (at least doubling of activated partial thromboplastin time vs. pre-dose)” value in test [6] (i.v. dosing) and in test [6] (oral dosing) was “effective” each time. In addition, the inhibitory constant (Ki) in test [4], in test [3] and in test [5] was < 0.5 µM each time.

Turning to “Boc--(D)Phe--Pro--boroOrn(CH=NH)]--OH.0.6 HCl.0.4 BSA [Example 7]”, the Ki in test [4], in test [3] and in test [5] was < 0.5 µM throughout. In addition, the “concentration that increased thrombin clotting times 2-fold” value in test [2] is < 0.075 µM.

Turning to “H--(D)Phe--Pro--boroOrn(CH=NH)]--OH.0.65 HCl.0.35 BSA [Example 9]”, the “concentration that increased thrombin clotting times 2-fold” value in test [2] was 0.10 µM. Moreover, the Ki in test [3] was < 0.5 µM.

With “Ms--(D)Phe--Pro--boroArg(CH3)--OH.HCl [Example 56]”, the “anticoagulant response (at least doubling of activated partial thromboplastin time vs. pre-dose)” value in test [6] (oral dosing) is on record as “effective”. Also, the inhibitory constant (Ki) in test [3] was < 0.5 µM.

Take “Ms--(D)Thiazolylalanine-Pro--boroPhe(m-CN)--C10 H16 [Example 31]”: the Ki in test [4] and in test [3] was < 0.5 µM in each case. Also, the “elevation in anticoagulant activity measured by increases in thrombin clotting times” value in test [7] was ≥ 2 fold.

These data come from patent publication US5658885A, “Amidino and guanidino substituted boronic acid inhibitors of trypsin-like enzymes” (The DuPont Merck Pharmaceutical Company, priority 1994, dated 1997).
